Calls of active or inactive are those of the source. The calls are words filed in the database; no cut-off is given here.
Assays:
MOLM-14 = test: Antiproliferative activity against human MOLM-14 cells harbouring FLT3-ITD assessed as inhibition of cell growth measured after 3 days by celltiter-glo luminescent cell viability assay; type: functional, cell-based; conditions: MOLM-14, 72 h
MV4-11 = test: Antiproliferative activity against human MV4-11 cells harbouring FLT3-ITD assessed as inhibition of cell growth measured after 3 days by celltiter-glo luminescent cell viability assay; type: functional, cell-based; conditions: MV4-11, 72 h
Jurkat = test: Antiproliferative activity against non-FLT3 expressing human Jurkat cells assessed as inhibition of cell growth measured after 3 days by celltiter-glo luminescent cell viability assay; type: functional, cell-based; conditions: 72 h
MOLM-13 [1] = test: Antiproliferative activity against human MOLM-13 cells harbouring FLT3-ITD assessed as inhibition of cell growth measured after 3 days by celltiter-glo luminescent cell viability assay; type: functional, cell-based; conditions: MOLM-13, 72 h
NCI-H441 = test: Antiproliferative activity against non-FLT3 expressing human NCI-H441 cells assessed as inhibition of cell growth measured after 3 days by celltiter-glo luminescent cell viability assay; type: functional, cell-based; conditions: NCI-H441, 72 h
[2] = molecular target: Mast/stem cell growth factor receptor Kit (Homo sapiens) (UniProt P10721); test: Inhibition of human c-Kit at 1 uM by Eurofins-DiscoverX assay
Mast/stem cell growth factor receptor Kit (Homo sapiens), sequence (P10721 whole entry): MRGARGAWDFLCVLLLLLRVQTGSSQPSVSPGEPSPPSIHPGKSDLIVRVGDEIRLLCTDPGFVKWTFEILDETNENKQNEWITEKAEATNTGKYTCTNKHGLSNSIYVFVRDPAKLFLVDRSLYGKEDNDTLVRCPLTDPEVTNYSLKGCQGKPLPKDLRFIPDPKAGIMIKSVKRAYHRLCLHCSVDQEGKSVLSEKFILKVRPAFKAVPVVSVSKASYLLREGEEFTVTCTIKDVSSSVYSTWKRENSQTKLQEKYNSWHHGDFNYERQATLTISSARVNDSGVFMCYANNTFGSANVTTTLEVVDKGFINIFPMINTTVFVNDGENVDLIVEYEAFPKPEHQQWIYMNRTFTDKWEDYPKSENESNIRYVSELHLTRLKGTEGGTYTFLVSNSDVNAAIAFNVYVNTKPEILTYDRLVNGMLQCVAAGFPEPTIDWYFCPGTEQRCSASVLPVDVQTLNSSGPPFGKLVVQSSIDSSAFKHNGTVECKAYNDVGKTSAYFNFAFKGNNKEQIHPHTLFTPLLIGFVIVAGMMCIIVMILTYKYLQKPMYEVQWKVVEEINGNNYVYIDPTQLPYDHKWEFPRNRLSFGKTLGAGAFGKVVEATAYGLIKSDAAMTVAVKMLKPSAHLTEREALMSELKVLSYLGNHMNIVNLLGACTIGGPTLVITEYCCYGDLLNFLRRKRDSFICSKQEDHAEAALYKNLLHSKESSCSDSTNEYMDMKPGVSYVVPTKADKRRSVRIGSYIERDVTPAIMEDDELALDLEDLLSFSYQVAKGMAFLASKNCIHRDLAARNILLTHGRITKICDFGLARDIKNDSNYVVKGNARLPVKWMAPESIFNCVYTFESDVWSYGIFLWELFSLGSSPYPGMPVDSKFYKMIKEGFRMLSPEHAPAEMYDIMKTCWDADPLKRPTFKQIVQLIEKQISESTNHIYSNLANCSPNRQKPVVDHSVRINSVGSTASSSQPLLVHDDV

[3] = molecular target: Cyclin-dependent kinase 1/cyclin B1 (Homo sapiens) (UniProt P06493+P14635); test: Inhibition of human CDK1/CyclinB1 at 1 uM by Eurofins-DiscoverX assay; type: protein-complex assay
Cyclin-dependent kinase 1/cyclin B1 (Homo sapiens), sequence (P06493 whole entry, looked up): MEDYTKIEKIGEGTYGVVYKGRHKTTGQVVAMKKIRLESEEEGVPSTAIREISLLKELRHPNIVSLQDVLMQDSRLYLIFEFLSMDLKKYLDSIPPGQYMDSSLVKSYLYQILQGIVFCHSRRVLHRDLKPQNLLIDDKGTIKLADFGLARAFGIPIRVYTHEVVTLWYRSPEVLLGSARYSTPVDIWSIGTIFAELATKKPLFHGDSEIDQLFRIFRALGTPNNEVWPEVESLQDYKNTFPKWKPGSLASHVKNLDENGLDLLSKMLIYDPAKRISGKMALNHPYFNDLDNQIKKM
Cyclin-dependent kinase 1/cyclin B1 (Homo sapiens), sequence (P14635 whole entry, looked up): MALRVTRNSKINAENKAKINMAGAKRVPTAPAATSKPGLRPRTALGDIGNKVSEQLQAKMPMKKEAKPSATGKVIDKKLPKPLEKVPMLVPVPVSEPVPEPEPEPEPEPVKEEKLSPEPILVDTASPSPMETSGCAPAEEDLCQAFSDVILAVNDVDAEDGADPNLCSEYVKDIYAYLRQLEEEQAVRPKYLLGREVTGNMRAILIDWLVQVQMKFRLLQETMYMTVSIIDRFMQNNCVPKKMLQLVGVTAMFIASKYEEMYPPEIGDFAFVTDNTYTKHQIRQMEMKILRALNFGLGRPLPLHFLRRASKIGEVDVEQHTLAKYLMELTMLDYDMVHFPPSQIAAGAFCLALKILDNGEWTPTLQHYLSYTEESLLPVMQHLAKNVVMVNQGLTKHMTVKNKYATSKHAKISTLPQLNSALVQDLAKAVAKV

[4] = molecular target: CDK3/Cyclin E (Homo sapiens) (UniProt P24864+Q00526); test: Inhibition of human CDK3/CyclinE at 1 uM by Eurofins-DiscoverX assay; type: protein-complex assay
CDK3/Cyclin E (Homo sapiens), sequence (P24864 whole entry, looked up): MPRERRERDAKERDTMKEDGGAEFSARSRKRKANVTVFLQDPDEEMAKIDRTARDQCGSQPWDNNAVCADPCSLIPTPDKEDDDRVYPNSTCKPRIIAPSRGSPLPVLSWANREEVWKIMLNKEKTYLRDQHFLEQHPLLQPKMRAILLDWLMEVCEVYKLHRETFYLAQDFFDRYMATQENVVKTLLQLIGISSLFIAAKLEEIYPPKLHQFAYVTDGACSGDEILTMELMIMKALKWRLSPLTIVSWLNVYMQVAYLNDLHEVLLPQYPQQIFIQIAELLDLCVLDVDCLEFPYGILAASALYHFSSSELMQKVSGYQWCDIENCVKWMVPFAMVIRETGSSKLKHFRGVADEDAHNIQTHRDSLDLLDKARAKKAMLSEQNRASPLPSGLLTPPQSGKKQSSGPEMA
CDK3/Cyclin E (Homo sapiens), sequence (Q00526 whole entry, looked up): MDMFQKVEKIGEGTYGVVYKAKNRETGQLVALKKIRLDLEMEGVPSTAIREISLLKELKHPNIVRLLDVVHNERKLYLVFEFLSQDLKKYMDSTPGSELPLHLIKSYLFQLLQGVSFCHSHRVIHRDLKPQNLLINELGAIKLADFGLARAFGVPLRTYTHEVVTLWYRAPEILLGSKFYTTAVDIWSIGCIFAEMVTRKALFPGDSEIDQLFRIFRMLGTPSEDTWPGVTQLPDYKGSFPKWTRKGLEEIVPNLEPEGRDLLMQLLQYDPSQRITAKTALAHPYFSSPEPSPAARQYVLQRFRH

[5] = molecular target: T1, CDK6/cyclin D3 (Homo sapiens) (UniProt P30281+Q00534); test: Inhibition of human CDK6/cyclinD3 at 1 uM by Eurofins-DiscoverX assay; type: protein-complex assay
[6] = molecular target: CDK4/Cyclin D3 (Homo sapiens) (UniProt P11802+P30281); test: Inhibition of human CDK4/cyclinD3 at 1 uM by Eurofins-DiscoverX assay; type: protein-complex assay
[7] = molecular target: T1, CDK6/cyclin D3 (Homo sapiens); test: Inhibition of human CDK6/cyclinD3 assessed as remaining activity at 1 uM by Eurofins-DiscoverX assay relative to control; type: protein-complex assay
[8] = molecular target: Receptor-type tyrosine-protein kinase FLT3 (Homo sapiens, UniProt P36888, ITD); test: Inhibition of FLT3 ITD mutant (unknown origin) using Fluorescein-Poly GT as substrate preincubated for 10 mins followed by substrate addition and measured after 30 mins in presence of ATP by mobility shift assay
Receptor-type tyrosine-protein kinase FLT3, sequence (P36888 whole entry, looked up, stated change not applied): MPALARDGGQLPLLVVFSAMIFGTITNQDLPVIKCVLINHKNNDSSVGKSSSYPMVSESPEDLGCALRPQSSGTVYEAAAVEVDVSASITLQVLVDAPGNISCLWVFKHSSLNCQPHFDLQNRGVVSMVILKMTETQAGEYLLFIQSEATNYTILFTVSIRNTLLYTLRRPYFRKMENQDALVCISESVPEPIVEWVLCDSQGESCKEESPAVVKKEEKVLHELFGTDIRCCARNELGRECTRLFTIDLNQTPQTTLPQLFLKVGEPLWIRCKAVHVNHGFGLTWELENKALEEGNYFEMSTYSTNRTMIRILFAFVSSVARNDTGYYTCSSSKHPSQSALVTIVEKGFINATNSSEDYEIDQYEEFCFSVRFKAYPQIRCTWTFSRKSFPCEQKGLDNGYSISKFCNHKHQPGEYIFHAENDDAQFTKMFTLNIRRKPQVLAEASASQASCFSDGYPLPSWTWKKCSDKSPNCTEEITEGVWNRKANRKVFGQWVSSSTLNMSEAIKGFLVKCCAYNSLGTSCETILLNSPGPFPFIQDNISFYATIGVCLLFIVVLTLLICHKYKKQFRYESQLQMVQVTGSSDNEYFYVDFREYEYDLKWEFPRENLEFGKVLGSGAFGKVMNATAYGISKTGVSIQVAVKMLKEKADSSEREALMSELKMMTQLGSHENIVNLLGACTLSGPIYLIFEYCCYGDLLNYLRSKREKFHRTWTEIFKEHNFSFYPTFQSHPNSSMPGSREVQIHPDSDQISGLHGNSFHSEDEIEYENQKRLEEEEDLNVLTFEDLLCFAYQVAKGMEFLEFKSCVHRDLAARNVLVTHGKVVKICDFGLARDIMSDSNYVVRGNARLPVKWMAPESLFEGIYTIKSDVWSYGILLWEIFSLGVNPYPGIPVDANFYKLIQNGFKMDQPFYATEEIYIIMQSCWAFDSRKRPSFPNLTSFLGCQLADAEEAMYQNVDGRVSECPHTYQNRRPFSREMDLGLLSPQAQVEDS

BaF3 [9] = test: Antiproliferative activity against mouse BaF3 cells harbouring TEL-KIT assessed as inhibition of cell growth measured after 3 days by celltiter-glo luminescent cell viability assay; type: functional, cell-based; conditions: BaF3, 72 h
BaF3 [10] = test: Antiproliferative activity against mouse BaF3 cells harbouring FLT3-ITD-D835Y mutant assessed as inhibition of cell growth measured after 3 days by celltiter-glo luminescent cell viability assay; type: functional, cell-based; conditions: BaF3, 72 h
MOLM-13 [11] = test: Induction of apoptosis in human MOLM-13 cells assessed as early apoptotic cells at 1 uM incubated for 48 hrs by Annexin V-FITC/PI staining based flow cytometry analysis (reference value: 4.93%); type: functional
MOLM-13 [12] = test: Induction of apoptosis in human MOLM-13 cells assessed as necrotic cells at 0.3 uM incubated for 48 hrs by Annexin V-FITC/PI staining based flow cytometry analysis (reference value: 0.077%); type: functional
MOLM-13 [13] = test: Induction of cell cycle arrest in human MOLM-13 cells assessed as accumulation of cells at S phase at 1 uM incubated for 48 hrs (reference value: 41.6%); type: functional
[14] = Metabolic stability in Sprague-Dawley rat liver microsomes assessed as parent compound remaining at 1 uM measured after 60 mins in presence of NADPH regenerating system by LC-MS/MS analysis; type: ADME, Microsome; conditions: read-out: Stability
[15] = Metabolic stability in Sprague-Dawley rat liver microsomes assessed as parent compound remaining at 1 uM measured after 60 mins by LC-MS/MS analysis; type: ADME, Microsome; conditions: read-out: Stability
[16] = Permeability of the compound incubated for 4 hrs by PAMPA method; type: ADME; conditions: read-out: permeability
CYP3A4 = CYP3A4 (Homo sapiens, UniProt P08684); test: Inhibition of CYP3A4 in human liver microsomes using midazolam as substrate at 10 uM incubated for 10 mins in presence of NADPH by LC-MS/MS analysis relative to control; type: ADME, Microsome; conditions: probe midazolam
[17] = molecular target: Voltage-gated inwardly rectifying potassium channel KCNH2 (Homo sapiens, UniProt Q12809); test: Inhibition of human ERG expressed in CHO cells by Qpatch assay; type: toxicity, cell-based
Voltage-gated inwardly rectifying potassium channel KCNH2, sequence (Q12809 whole entry): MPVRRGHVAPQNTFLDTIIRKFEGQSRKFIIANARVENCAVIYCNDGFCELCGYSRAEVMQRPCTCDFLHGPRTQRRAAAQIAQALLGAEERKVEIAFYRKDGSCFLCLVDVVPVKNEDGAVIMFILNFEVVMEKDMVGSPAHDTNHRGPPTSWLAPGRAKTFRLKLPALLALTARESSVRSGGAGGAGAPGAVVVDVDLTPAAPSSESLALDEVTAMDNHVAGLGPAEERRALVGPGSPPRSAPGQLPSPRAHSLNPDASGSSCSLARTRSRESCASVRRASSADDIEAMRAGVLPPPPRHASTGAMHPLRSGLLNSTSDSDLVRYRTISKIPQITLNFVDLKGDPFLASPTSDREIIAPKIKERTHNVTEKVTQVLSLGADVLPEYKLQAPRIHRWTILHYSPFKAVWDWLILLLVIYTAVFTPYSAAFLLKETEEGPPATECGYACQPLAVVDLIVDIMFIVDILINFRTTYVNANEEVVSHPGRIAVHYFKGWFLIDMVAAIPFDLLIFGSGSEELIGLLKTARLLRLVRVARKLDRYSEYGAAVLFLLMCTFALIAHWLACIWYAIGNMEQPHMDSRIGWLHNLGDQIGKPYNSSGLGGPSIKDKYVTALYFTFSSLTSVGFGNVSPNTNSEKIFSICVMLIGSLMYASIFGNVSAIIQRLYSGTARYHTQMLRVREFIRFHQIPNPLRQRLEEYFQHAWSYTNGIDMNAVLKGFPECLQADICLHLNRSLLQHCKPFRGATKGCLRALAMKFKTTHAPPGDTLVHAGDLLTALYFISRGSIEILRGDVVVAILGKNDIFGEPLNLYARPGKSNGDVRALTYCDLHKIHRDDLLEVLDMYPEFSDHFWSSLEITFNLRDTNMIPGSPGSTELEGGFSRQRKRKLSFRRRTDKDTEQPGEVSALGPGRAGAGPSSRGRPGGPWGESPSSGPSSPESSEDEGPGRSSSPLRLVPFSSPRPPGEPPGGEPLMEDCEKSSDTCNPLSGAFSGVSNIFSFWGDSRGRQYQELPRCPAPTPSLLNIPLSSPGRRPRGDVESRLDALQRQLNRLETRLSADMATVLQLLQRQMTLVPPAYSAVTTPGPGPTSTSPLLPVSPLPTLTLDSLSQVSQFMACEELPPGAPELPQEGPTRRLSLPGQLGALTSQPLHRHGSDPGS

[18] = Cmax in mouse at 5 mg/kg, iv; type: ADME, organism-based; conditions: in vivo
[19] = MRT (0 to t) in mouse at 5 mg/kg, iv; type: ADME, organism-based; conditions: in vivo
[20] = Cmax in mouse at 10 mg/kg, po; type: ADME, organism-based; conditions: in vivo
[21] = Oral bioavailability in mouse at 10 mg/kg; type: ADME, organism-based; conditions: in vivo

For Cc1cc(=O)n(-c2cc(Cl)ccc2F)nc1C(=O)Nc1ccc(Oc2ccnc(NC(=O)N3CC(O)C3)c2)c(F)c1, the IC50 (MOLM-14) was 0.51 µM, the IC50 (MV4-11) was 0.39 µM and the IC50 (Jurkat) was over 30 µM. For the same compound, the IC50 (MOLM-13 [1]) was 0.14 µM, the IC50 (NCI-H441) was over 30 µM and the inhibition [2] was “inactive”. For the same compound, the inhibition [3] was “inactive”, the inhibition [4] was “inactive” and the inhibition [5] was “inactive”. For the same compound, the inhibition [6] was “inactive”, the Activity [7] was 88% and the IC50 [8] was 0.153 µM. It also gave an IC50 (BaF3 [9]) of over 10 µM, an IC50 (BaF3 [10]) of 6.6 µM and an Activity (MOLM-13 [11]) of 29.6%. For the same compound, the Activity (MOLM-13 [12]) was 0.068%, the Activity (MOLM-13 [13]) was 21.2% and the remaining at 1 h, 1 µM [14] was 69.2%. The remaining at 1 h, 1 µM [15] was 108%, the Papp at 4 h [16] was 8.6 nm/s and the inhibition at 10 min, 10 µM (CYP3A4) was 34.2%. The IC50 [17] was over 30 µM, the Cmax [18] was 0.443 µg/mL and the MRT last [19] was 7.17 h. The Cmax [20] was 0.306 µg/mL and the bioavailability [21] was 32.4%.

From ChEMBL document CHEMBL6109114, “Design, synthesis, and biological evaluation of 4-(2-fluorophenoxy)pyridine derivatives as novel FLT3-ITD inhibitors” (Eur J Med Chem, 2025)
